This is an account of results in patent US20080221074A1, “Drug Screen and Treatment Method” (priority 2006, published 2008).

In general, IC50 refers to the concentration needed to halve the response being measured. Low readings indicate higher potency, high ones lower potency.

Where only a bound is given, the exact number is not on record here.

For data set [1], the system named is carrageenan-λ induced pleurisy. Kind of data set: carrageenan-λ induced lung (pleural cavity) inflammation. The format is in vivo, CD1 male mice. The conditions noted are these: for number of neutrophils relative to negative control group (set at 100%): exudate 4 h after. An excerpt: Treatment of lung inflammation. Three compounds, 3β,16α-dihydroxy-17-oxoandrostane, 3α,16β,17β-trihydroxyandrostane and 3α,16α,17α-trihydroxyandrostane were used to treat inflammation in mice essentially as described (D. Auci et al., Ann. New York Acad. Sci. 1051:730-742 2005). Five to 8 week old CD1 male mice (Charles River, Calco, Italy) were used for the study. The animals were housed in a controlled environment and provided with standard rodent chow and water. Animal care was in compliance with applicable regulations on protection of animals. Mice were allocated into one of the following groups: (1) mice treated with 2% carrageenan-k in saline (carrageenan-λ treated control group), (2) mice treated with 0.1 mg, 0.01 mg or 0.001 mg 3β,16α-dihydroxy-17-oxoandrostane by subcutaneous (s.c.) injection 24 h and 1 h before carrageenan-λ administration, (3) mice treated with 0.1 mg, 0.01 mg or 0.001 mg of 3α,16α,17α-trihydroxyandrostane by s.c. injection 24 and 1 h before carrageenan; (4) mice treated with 0.1 mg, 0.01 mg or 0.001 mg […],16β,17β-trihydroxyandrostane by s.c. injection 24 h and 1 h before carrageenan-λ administration; (5) mice treated with vehicle (0.1% carboxymethylcellulose, 0.9% saline, 2% tween 80, 0.05% phenol) s.c. 24 h and 1 h before carrageenan-λ administration; (6) mice treated with rabbit anti-mouse polyclonal anti-TNF-α antibody (200 μg) given as an intraperitoneal bolus 24 h and 1 h before carrageenan-λ administration (positive control group); and (7) sham-operated mice that were not treated with carrageenan-λ. Each group consisted of 10 mice. All treatments were given in a final volume of 100 μL. Lung (pleural cavity) inflammation was induced as follows. The mice were anaesthetised with isoflurane and a skin incision was made at the level of the left sixth intercostal space. The underlying muscle was dissected and either 0.1 mL saline (control) or 0.1 mL saline containing 2% λ-carrageenan was injected into the pleural cavity. The carrageenan-λ is a potent inducer of inflammation, which is manifested in this protocol by accumulation of fluid and neutrophils in the pleural cavity. The incision was closed with a suture and the animals were allowed to recover.
At 4 h after the injection of carrageenan-λ, the animals were euthanized by exposure to CO2. The chest was carefully opened and the pleural cavity rinsed with 1 mL of saline solution containing heparin (5 U/mL) and indomethacin (10 μg/mL). The exudate and washing solution were removed by aspiration and the total volume measured. Any exudate contaminated with blood was discarded. The amount of exudate was calculated by subtracting the injected 1 mL volume from the total pleural cavity volume that was recovered. The neutrophils in the exudate were suspended in phosphate-buffer saline and counted with an optical microscope in a Burker's chamber after Trypan Blue staining. The results were analysed by one-way ANOVA followed by a Bonferroni post-hoc test for multiple comparisons. A p-value less than 0.05 was considered significant. For statistical analysis each group was compared to the control group of mice that were challenged with carrageenan-k and received no other treatment.
The table below describes the number of neutrophils from the treated animal groups relative to untreated control animals that were exposed to carrageenan-λ, but not treated with anything else (negative control group). The neutrophil number for the negative control group was set at 100% and other groups were compared to this.

Data set [2] concerns NF-κB. Kind of data set: inhibition of NF-κB activation in NF-κB-bla THP-1 cells after LPS stimulation. The conditions noted are these: Homo sapiens, THP-1. The format is cell-based, human. An excerpt:
Inhibition of NF-κB in vitro. […] Activation of NF-κB increases expression of a number of genes that mediate inflammation. This protocol used human THP-1 cells, which are human mononuclear blood cells with a monocyte phenotype. The cell line, referred to as NF-κB-bla THP-1, contained a β-lactamase reporter gene under the control of the NF-kB response element (Invitrogen, CellSensor™, product No. K1176). In this cell line, the β-lactamase reporter gene is stably integrated in the THP-1 cells. This cell line was used to detect agonists or antagonists of the NF-κB signaling pathway. These NF-κB-bla THP-1 cells respond to the presence of tumor necrosis factor alpha (TNFα) or bacterial lipopolysaccharide (LPS) by increased expression of the β-lactamase reporter gene. The level of β-lactamase enzyme activity was measured by fluorescence resonance energy transfer ratiometric detection. TNFα and LPS are both potent inflammation-inducing agents that activate NF-κB in THP1 cells. In this assay, compounds that decrease NF-κB activity, and thus β-lactamase, in the presence of TNFα or LPS are exerting an anti-inflammation activity.
The NF-κB-bla THP-1 cells were maintained by passaging or feeding as needed. […] The cells were plated at 20,000 cells/well in a 384-well Black-wall, clear bottom assay plates (Costar#3712-TC low fluorescence background plates) approximately 24 hours before adding either TNFα at 10 ng/mL or LPS at 0.2 ng/mL to activate NF-κB.
The assays were usually conducted 2-4 times for each compound and the values shown below are averages for each compound.

The nature of data set [3]: metabolic stability in liver microsomes, species not stated. The settings on record: compared with androst-5-ene-3β,17β-diol. Here is the method: The protocol was performed as follows. […] (2) Set up samples as follows. […] (4) The internal standard/acetonitrile solution.
A general note: Microsomes from liver hold many membrane-bound enzymes, among them those of drug oxidation.

Data set [4] has as its system ionizing radiation exposure. Description: survival after lethal total body irradiation (10 Gy). The format is in vivo, female B6D2F1 mice. The settings on record: 0.6 mg s.c. daily for 3 days. As for the experimental part: Treatment of ionizing radiation exposure. The effect of selected F1Cs on survival of lethally-irradiated female B6D2F1 mice were compared to control animals treated with vehicle alone. […] For Group 4, test article was administered as a 50 μL volume, by intramuscular injection for three consecutive days. The formulation was a a suspension containing 0.1% w/v carboxymethyl-cellulose, 0.9% w/v sodium chloride and 0.05% v/v phenol. The formulations were agitated to uniformly resuspend the Fl C before syringing, and injected into animals within a few minutes of drawing into the syringe to prevent settling in the syringe.
The groups of animals were treated as follows. […] The number of surviving animals is shown for day 6, 7, 12 and 21.

The test system of data set [5] is EAE. Kind of data set: experimental allergic encephalomyelitis (EAE), PLP 139-151. The settings on record: 5 mg/kg daily oral gavage; through day 26. The format is in vivo, female SJL/J mice. An excerpt:
Treatment of autoimmune neurodegeneration. Three compounds, 17β-aminoandrost-5-ene-3β-ol, 17β-dimethylaminoandrost-5-ene-3β-ol and 17β-methylaminoandrost-5-ene-3β-ol were characterized for their capacity to ameliorate experimental allergic encephalomyelitis (EAE) in mice. This demyelinating condition is extensively used as a model for multiple sclerosis in humans and for testing of new therapies for treating multiple sclerosis, e.g., B. F. Bebo Jr. et al., J. Neurosci. Res. 52:420-426 1998; R. R. Voskuhl et al., Neuroscientist, 7:258-270 2001; H. Offner et al., J. Neuroimmunol., 130:128-139 2002.
In this protocol, the compounds were administered to female SJL/J mice by oral gavage at the onset of disease symptoms. An antigen was used to initiate the EAE condition in the mice. […] Immunization with this peptide antigen initiates an autoimmune Thl mediated demyelinating disease of the central nervous system. The antigen was prepared by solid phase synthesis and purified by high-performance liquid chromatography. […] The immunization protocol was subcutaneous injection over four sites on the hind flank on day 0. After immunization. the mice were assessed daily for clinical signs of EAE using the following scale: 0=no clinical signs or symptoms; 1=limp tail; 2=mild hind limb weakness and limp tail; 3=moderate hind limb weakness and limp tail or mild ataxia; 4=severe hind limb weakness and mild forearm weakness with moderate ataxia; 5=paraplegia with no more than moderate forelimb weakness; 6=paraplegia with severe forelimb weakness or severe ataxia or moribund condition.
Mice in the vehicle control group began to show observable symptoms of EAE at about 10-11 days after immunization with the PLP antigen, which is typical for the EAE disease model. The animals were dosed daily with 17β-aminoandrost-5-ene-3β-ol, 17β-dimethylaminoandrost-5-ene-3β-ol or 17β-methylaminoandrost-5-ene-3β-ol by oral gavage beginning at day 1, which was 1 day after immunization.

Data set [6] deals with human T lymphocytes (PBMC). Kind of data set: human mixed lymphocyte reaction (MLR). The conditions noted are these: 300 nM. The format is cell-based. An excerpt: Human mixed lymphocyte reaction (MLR). The capacity of 3β,16α-dihydroxy-17-oxoandrostane, 3β,17β-dihydroxy-16-oxoandrostane, 17α-ethynylandrost-5-ene-3β,7β,17β-triol, and 17β-aminoandrost-5-ene-3β-ol to affect antigen specific stimulation in which human T lymphocytes respond to a specific foreign antigen (major histocompatibility complex).
Blood samples were obtained from 3 (2 males, […]) fasting, healthy human volunteers of 23-31 years old. […] The subjects were bled between 9 and 10 AM to limit possible fluctuations in the circulating levels of hormones or cytokines that could have influenced the in vitro responses of their lymphocytes. Peripheral blood mononuclear cells (PBMC) were isolated by centrifugation on Ficoll-Hypaque (density 1.077, Biochrom AG, Berlin, Germany) gradients and resuspended in culture medium (RPMI 1640 supplemented with 2 mM L-glutamine, penicillin (100 U/mL) and streptomycin ([…]) (Invitrogen s.rl., Milan, Italy). Autologous (responder) inactivated plasma was used at 10%. Five hundred thousand responder PBMC (PBMCr) and 500,000 allogeneic irradiated (30 Gy) stimulator PBMC (PBMCs) were mixed at a ratio of 1:1 in 200 μL medium and cultured for 6 days in flat bottom 96 well plates (Nunc, Roskilde, Denmark) at a concentration of 300 nM or 30 nM for each of the 4 compounds. The compounds were dissolved in ethanol and then diluted to the desired concentration with culture medium leading to a final solution containing 0.01% of ethanol. This vehicle was used as control. Controls also included PBMCr and PBMCs cultured separately. During the last 8 hours of the culture period the PBMC were pulsed with […] [^3H] thymidine (Amersham, Milan, Italy). The cells were then harvested and radioactivity incorporation measured with a beta cell counter. The mean cpm of quadruplicate wells was calculated. Proliferation of T cells was expressed as a stimulation index: SI=cpm (PMBCs xPBMCr)/cpm (PBMCr)+cpm (PBMCs). Statistical analysis was performed using the Student's t test. The cpm obtained from quadruplicate of each test compound were compared to proliferative responses obtained in control PBMCr and PBMCs cultured in the presence of the vehicle. Differences were considered significant at p<0.05.

On to `C[C@]12CC[C@H]3[C@@H](CCC4C[C@H](O)CC[C@@]43C)[C@@H]1C[C@@H](O)[C@H]2O` (stereo partly drawn) [3α,16α,17α-trihydroxyandrostane], for which the “number of neutrophils relative to negative control group (set at 100%)” value in data set [1] (0.01 mg s.c. 24 h and 1 h before carrageenan-λ) is on record as 45%; in data set [1] (0.1 mg s.c. 24 h and 1 h before carrageenan-λ) it was 30%. In data set [2], this compound came in with an IC50 greater than 10 µM. Further, the “rate of metabolism by microsomes” value in data set [3] is reported as “metabolized by microsomes at a rate similar to the androst-5-ene-3β,17β-diol reference compound”.
Turning to `C[C@]12CC[C@H]3[C@@H](CC=C4C[C@@H](O)CC[C@@]43C)[C@@H]1CC[C@@H]2N` [17β-aminoandrost-5-ene-3β-ol], the “number of surviving animals (groups of 12)” value in data set [4] (day 6) is recorded as 12; in data set [4] (day 7), 12; in data set [4] (day 12), 12; in data set [4] (day 21), 11. In data set [1] (oral gavage, 1 mg and 0.1 mg (17α-ethynyl triol), 40 mg/kg (17β-amino compound)), the “anti-inflammation activity compared to vehicle controls” value is given as “statistically significant anti-inflammation activity”. For the same compound, the “clinical severity of EAE symptoms” value in data set [5] is recorded as “reduced the clinical severity”. In data set [6], the “immune suppression (inhibition of the MLR)” value is listed as “moderately immune suppressive”.
As for `C[C@]12CC[C@H]3[C@@H](CC=C4C[C@@H](O)CC[C@@]43C)[C@@H]1C[C@@H](O)[C@@H]2O` [androst-5-ene-3β,16α,17β-triol], the “rate of metabolism by microsomes” value in data set [3] is “metabolized by microsomes at a rate similar to the androst-5-ene-3β,17β-diol reference compound”.
